We go through two molecules from PMC11802738 (Nature Communications, 2025).

In assay [1] the target is SpNanA (GRAB-Sia = SpNanA D372N) (Streptococcus pneumoniae, UniProt P62576, D372N). The note with it: PBS; 50 μM protein in cell, 1 mM ligand in syringe; monomeric GRAB-Sia.
Assay [2] addresses T1, RgNanH (GRAB-Sia3 = RgNanH D282A) (Mediterraneibacter gnavus, UniProt A7B557, D282A).
T1 sequence (A7B557 243-723 D282A): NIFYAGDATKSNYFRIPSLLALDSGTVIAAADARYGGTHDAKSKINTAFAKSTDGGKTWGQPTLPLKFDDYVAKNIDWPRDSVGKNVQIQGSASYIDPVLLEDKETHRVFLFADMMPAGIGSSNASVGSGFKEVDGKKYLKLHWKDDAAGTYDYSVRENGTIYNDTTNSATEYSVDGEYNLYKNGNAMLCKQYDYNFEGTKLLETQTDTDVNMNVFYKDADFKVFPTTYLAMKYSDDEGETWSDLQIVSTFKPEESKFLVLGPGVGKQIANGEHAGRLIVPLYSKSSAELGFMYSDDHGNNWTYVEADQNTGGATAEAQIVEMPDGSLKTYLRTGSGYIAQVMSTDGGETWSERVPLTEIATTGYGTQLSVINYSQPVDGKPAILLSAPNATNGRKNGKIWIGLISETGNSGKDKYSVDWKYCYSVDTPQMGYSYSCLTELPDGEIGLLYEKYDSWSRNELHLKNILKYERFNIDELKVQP
Description: isothermal titration calorimetry. The format is binding. As to conditions: PBS; 50 μM protein in cell, 1 mM ligand in syringe; monomeric GRAB-Sia3.

For `CC(=O)N[C@H]1[C@H]([C@H](O)[C@H](O)CO)O[C@@](O[C@H]2[C@@H](O)[C@@H](CO)O[C@@H](O[C@H]3[C@H](O)[C@@H](O)C(O)O[C@@H]3CO)[C@@H]2O)(C(=O)O)C[C@@H]1O` (stereo partly drawn) [3′SL], the figures for the Kd in assay [1] and in assay [2] were 17.8 µM and 7.15 µM, respectively.

Take `CC(=O)N[C@H]1[C@H]([C@H](O)[C@H](O)CO)O[C@@](OC[C@H]2O[C@@H](O[C@H]3[C@H](O)[C@@H](O)C(O)O[C@@H]3CO)[C@H](O)[C@@H](O)[C@H]2O)(C(=O)O)C[C@@H]1O` (stereo partly drawn) [6′SL]: the Kd in assay [1] turned out to be 19.1 µM.
